Source: ChEMBL document CHEMBL5316315 (J Med Chem, 2023)
Calls of active or inactive are those of the source. The rule behind the calls is not given here.

Experiments:
[1] = molecular target: T1, N-terminal Xaa-Pro-Lys N-methyltransferase 1 (Homo sapiens, UniProt Q9BV86); assay: Inhibition of N-terminal 6-his tagged TEV fused full length human NTMT1 (1 to 222 residues) expressed in Escherichia coli BL21-Codonplus(DE3)-RIL cells using GPKRIA peptide as substrate preincubated with compound for 10 mins followed by substrate addition and measured immediately by SAHH-coupled fluorescence analysis
T1 sequence (Q9BV86 whole entry): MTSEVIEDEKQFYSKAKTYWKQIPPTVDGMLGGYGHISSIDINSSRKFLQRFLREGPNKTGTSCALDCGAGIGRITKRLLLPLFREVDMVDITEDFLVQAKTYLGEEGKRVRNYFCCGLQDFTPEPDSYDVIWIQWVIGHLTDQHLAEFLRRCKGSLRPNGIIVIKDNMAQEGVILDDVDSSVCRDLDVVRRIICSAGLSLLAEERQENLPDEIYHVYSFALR

[2] = molecular target: T2, Ceramide glucosyltransferase (Homo sapiens) (UniProt Q16739); conditions: HCT-116, dose 30.0 nM, time 52.0 hrs
T2 sequence (whole entry): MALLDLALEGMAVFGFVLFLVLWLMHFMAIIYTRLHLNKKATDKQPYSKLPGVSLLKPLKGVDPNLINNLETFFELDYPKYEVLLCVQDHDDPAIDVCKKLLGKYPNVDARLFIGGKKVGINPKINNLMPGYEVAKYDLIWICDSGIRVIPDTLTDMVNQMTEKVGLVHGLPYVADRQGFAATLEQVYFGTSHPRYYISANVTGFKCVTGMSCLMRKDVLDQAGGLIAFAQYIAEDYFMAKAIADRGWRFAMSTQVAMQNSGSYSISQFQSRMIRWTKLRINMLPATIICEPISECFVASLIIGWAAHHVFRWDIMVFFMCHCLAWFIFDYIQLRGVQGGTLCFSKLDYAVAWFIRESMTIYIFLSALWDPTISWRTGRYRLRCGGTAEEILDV

[3] = Toxicity in Balb/c mouse assessed as effect on response at 100 to 200 mg/kg, po administered as single dose for 2 weeks; format: organism-based; conditions: in vivo, 336 h, dose 100-200 mg/kg
[4] = Toxicity in Balb/c mouse assessed as effect on body weight loss at 100 to 200 mg/kg, po administered as single dose for 2 weeks; format: organism-based; conditions: in vivo, 336 h, dose 100-200 mg/kg
[5] = Toxicity in Balb/c mouse assessed as animal death at 400 mg/kg, po administered as single dose and measured 15 mins post administration; format: organism-based; conditions: in vivo, 0.25 h
[6] = Toxicity in Balb/c mouse assessed as effect on bright behaviour at 250 to 350 mg/kg, po administered as single dose for 2 weeks; format: organism-based; conditions: in vivo, 336 h, dose 250-350 mg/kg
[7] = Toxicity in Balb/c mouse assessed as effect on alert behaviour at 250 to 350 mg/kg, po administered as single dose for 2 weeks; format: organism-based; conditions: in vivo, 336 h, dose 250-350 mg/kg
[8] = Toxicity in Balb/c mouse assessed as effect on response at 250 to 350 mg/kg, po administered as single dose for 2 weeks; format: organism-based; conditions: in vivo, 336 h, dose 250-350 mg/kg
[9] = Toxicity in Balb/c mouse assessed as effect on body weight loss at 250 to 350 mg/kg, po administered as single dose for 2 weeks; format: organism-based; conditions: in vivo, 336 h, dose 250-350 mg/kg
[10] = Tmax in CD-1 mouse at 25 mg/kg, po measured upto 24 hrs; format: ADME, organism-based; conditions: in vivo
[11] = AUClast in CD-1 mouse at 25 mg/kg, po measured upto 24 hrs; format: ADME, organism-based; set-up: time < 24 hrs, dose 25 mg/kg, route po; conditions: in vivo
[12] = Half-life in CD-1 mouse at 25 mg/kg, po measured upto 24 hrs; format: ADME, organism-based; conditions: in vivo
[13] = Dose normalized AUClast in CD-1 mouse at 25 mg/kg, po measured upto 24 hrs; format: ADME, organism-based; conditions: in vivo
[14] = Drug concentration in CD-1 mouse plasma at 25 mg/kg, po measured after 4 hrs; format: ADME, organism-based

Row | Structure (SMILES) | IC50 [1] [µM] | further results
1 | CC(C)(NC(=O)O[C@@H]1CN2CCC1CC2)c1csc(-c2cccc([N+](=O)[O-])c2)n1 | 64 | 
2 | CCCN1CCC[C@H](OC(=O)NC(C)(C)c2csc(-c3ccc(F)cc3)n2)C1 | 18 | 
3 | CC(C)(NC(=O)OCCN1CCCCC1)c1csc(-c2ccc(F)cc2)n1 | > 100 | 
4 | CC(C)(NC(=O)O[C@@H]1CN2CCC1CC2)c1csc(-c2cccs2)n1 | 2.4 | 
5 | CC(C)(NC(=O)O[C@@H]1CN2CCC1CC2)c1csc(-c2ccc(F)cc2O)n1 | 0.3 | 
6 | CC(C)(NC(=O)O[C@@H]1CN2CCC1CC2)c1csc(-c2ccco2)n1 | 21 | 
7 | O=C(NCc1csc(-c2ccc(F)cc2)n1)O[C@@H]1CN2CCC1CC2 | > 100 | 
8 | CC(C)(NC(=O)O[C@@H]1CN2CCC1CC2)c1csc(-c2ccc(F)nc2)n1 | 1.5 | 
9 | CC(C)(NC(=O)O[C@@H]1CN2CCC1CC2)c1csc(-c2ccccn2)n1 | 3.7 | 
10 | CC(C)(NC(=O)O[C@@H]1CN2CCC1CC2)c1csc(-c2ccsc2)n1 | 9.1 | 
11 | CN1CCC[C@H](OC(=O)NC(C)(C)c2csc(-c3ccc(F)cc3)n2)C1 | 25 | 
12 | CC(C)(NC(=O)O[C@H]1CCCNC1)c1csc(-c2ccc(F)cc2)n1 | > 100 | 
13 | CC(C)(NC(=O)O[C@@H]1CN2CCC1CC2)c1csc(-c2ccccc2N)n1 | 7.1 | 
14 | CC(C)(NC(=O)O[C@@H]1CN2CCC1CC2)c1csc(-c2ccc(O)cc2)n1 | 25 | 
15 | CC(C)(NC(=O)N[C@@H]1CN2CCC1CC2)c1csc(-c2ccc(F)cc2)n1 | 40 | 
16 | CC(C)(NC(=O)O[C@@H]1CN2CCC1CC2)c1csc(-c2cccc(O)c2)n1 | 0.56 | 

Row | Structure (SMILES) | IC50 [1] [µM] | further results
17 | COc1ccc(-c2nc(C(C)(C)NC(=O)O[C@@H]3CN4CCC3CC4)cs2)cc1 | 54 | 
18 | CC(C)(NC(=O)O[C@@H]1CN2CCC1CC2)c1csc(-c2ccc(C(=O)O)cc2)n1 | > 100 | 
19 | CC(C)(NC(=O)O[C@@H]1CN2CCC1CC2)c1csc(-c2cccnc2)n1 | 2.8 | 
20 | CC(C)c1nc(C(C)(C)NC(=O)O[C@@H]2CN3CCC2CC3)cs1 | > 100 | 
21 | CC(C)(NC(=O)O[C@@H]1CN2CCC1CC2)c1csc(-c2cncnc2)n1 | > 100 | 
22 | CC(C)(NC(=O)O[C@@H]1CN2CCC1CC2)c1csc(-c2cccc(N)c2)n1 | 7.6 | 
23 | CC(C)(NC(=O)O[C@@H]1CN2CCC1CC2)c1csc(-c2ccc(F)cc2)n1 |  | inhibition [2]: Active
24 | CC(C)(NC(=O)O[C@@H]1CN2CCC1CC2)c1csc(I)n1 | 46 | 
25 | CC(C)(NC(=O)Oc1cccnc1)c1csc(-c2ccc(F)cc2)n1 | > 100 | 
26 | CC(C)(NC(=O)O[C@@H]1CN2CCC1CC2)c1csc(-c2ccc(N)cc2)n1 | 7.5 | 
27 | CC(C)(NC(=O)O[C@@H]1CN2CCC1CC2)c1csc(-c2ccccc2O)n1 | 4.6 | 
28 | CC(C)(NC(=O)O[C@@H]1CN2CCC1CC2)c1csc(-c2ccc(F)c(O)c2)n1 |  | Activity [3]: Non-Toxic; Activity [4]: Non-Toxic; Activity [5]: Toxic; Activity [6]: Non-Toxic; Activity [7]: Non-Toxic; Activity [8]: Non-Toxic; Activity [9]: Non-Toxic; Tmax [10]: 0.25 h; AUC(0-t) at 24 h [11]: 157 ng·h/mL; half-life [12]: 2.63 h; AUClast/dose [13]: 6.27 ng·h/mL; concentration at 4 h [14]: > 18.8 ng/mL
29 | CC(C)(NC(=O)O[C@@H]1CN2CCC1CC2)c1csc(-c2ccoc2)n1 | 91 | 
30 | CC(C)(C(=O)N[C@@H]1CN2CCC1CC2)c1csc(-c2ccc(F)cc2)n1 | > 100 | 
31 | CNc1nc(C(C)(C)NC(=O)O[C@@H]2CN3CCC2CC3)cs1 | 50 | 
32 | CC(C)(NC(=O)O[C@@H]1CN2CCC1CC2)c1csc(-c2cccc3ccccc23)n1 | 44 | 
